# Test results published in patent publication US20040009899A1, “Treating dominant disorders” (priority 2002, published 2004).
# Assays:
# Format in all cases: in vivo, mouse
# human HD transgene = assay: Western immunoblot of human HD transgene (htt) expression in PNA-treated R6/1 mice
# Experimental: Cannulation and microsurgery—method 1: B6CBA, R6/1, and R6/2 mice were obtained from The Jackson Laboratory (Bar Harbor, Me.). Mice were anesthetized via intraperitoneal (i.p.) injection with 100 mg/kg of a ketamine/xylazine solution containing 8 mg/mL ketamine and 1 mg/mL xylazine in 0.9% saline. Once anesthetized, each mouse was cannulated. Each anesthetized mouse was placed in a Stoelting Stereotaxic Frame with a mouse adapter (Stoelting Instruments, Wood Dale, Ill.). An incision was made using a scalpel, and the skin and tissue were pulled back with swabs to reveal the skull. The cannulation site was positioned for optimum access to the ventricle, at coordinates AP −0.2 mm, Horiz −1 mm from bregma. A cannula entry port and two bone screw ports were opened in the skull using a Dremel Flex Shaft Drill (Stoelting Instruments) with a 2.1 mm burr for the guide cannula port and a 0.7 mm burr for the bone screws (Fine Science Tools, Foster City, Calif.). Two 4.0 mm long bone screws (0.85 diameter) were placed far enough into the bone screw ports to fasten securely. After placing the bone screws, a cannula system (Plastics One, Roanoke, Va.) including a guide cannula (C315Gs-5/Spc), a dummy cannula (C313Dcs-5Spc), an injection cannula (C3151S-5.2/Spc), and a connector assembly (C313C) was placed in the guide cannula port. The guide cannula was positioned 1.5 mm into the brain using a stereotaxic needle and was secured to the bone screws and incision with dental cement. Once the dental cement hardened, the stereotaxic needle was removed and both the injection cannula and dummy cannula were placed within the guide cannula and secured to the connector assembly. Proper cannula placement was confirmed in several mice by injecting bromophenol blue dye into the ventricular space and noting that only the ventricle was stained. […]
# Following the treatment period, mice were anesthetized with ether and sacrificed by cervical dislocation. […] Following centrifugation, the supernatants were removed and protein concentrations were quantified by Bradford assays using a BSA standard. […]
# R6/2 mice [1] = assay: Brain weight / brain atrophy of treated R6/2 mice
# Experimental: (§1) Experiments were conducted to determine whether PNA-mediated inhibition of mutant huntingtin expression increased survival and/or reversed features of pathophysiology. R6/2 and non-transgenic mice were divided into two groups of three to five mice each, and treated with either HDs or ACSF for approximately ten weeks, beginning at five to six weeks of age. Treated animals received a dose of 0.15 mg/kg of the HDs PNA oligomer, administered by continuous infusion through an Alzet pump. All ACSF-treated transgenic mice died by three months of age.
# (§2) At 9 weeks of age, the mice in each group received saline (group 1) or HDs at 2.0 mg/kg, 5.0 mg/kg, or 20.0 mg/kg (groups 2, 3, and 4, respectively) by i.p. injection every 48 hours. The injections continued through 13 weeks of age (i.e., treatment for […]). Weight stability, clasping behavior, motility, and motor skill were assessed weekly during the treatment period. At the time of death or after the treatment period, the brain of each mouse was removed using standard methods. The brains were divided into hemispheres, and one hemisphere of each brain was saved for protein and mRNA analysis. The remaining hemispheres were fixed directly in 10% formalin for 5-7 days. After fixing, the brain hemispheres were weighed individually and processed for sectioning and pathophysiology.
# R6/2 mice [2] = assay: Open field test to assess motility; settings: for level of motility (open field test): R6/2 mice
# Experimental: Open field test to assess motility: Each mouse was confined for 10 minutes in a Plexiglas locomotion chamber equipped with a laser source and detector. As the mouse passed between the laser source and detector, the laser beam was “broken” and the event was automatically recorded. The number of beam breaks for B6CBA mice treated with the HDs PNA oligomer was compared to that of saline-treated or untreated control B6CBA mice. This number was directly related to general activity of the mice.
# as §1
# In other experiments, R6/2 mice were divided into five groups (designated groups 1-5) containing eight to ten animals each. Groups 1-4 received either saline (group 1) or a specific amount of HDs (groups 2-4). Group 5 included untreated R6/2 mice. A sixth group included untreated non-transgenic B6CBA control mice. At 8 weeks of age, each mouse was weighed to establish a weight stability baseline. Baselines for clasping behavior, motility, and motor skill were established at 9 weeks of age using the methods described in Example 1.
# as §2
substance,measurement,setting,value
"HDs: sense PNA oligomer, 14 residues, 5′-GGACTGCCGTGCCG-3′ (SEQ ID NO:3), specific for the expanded human HD allele (all peptide nucleic acid (PNA))","effectiveness at inhibiting transgene expression relative to random, scrambled PNA",human HD transgene; 25 μg into the ventricle every other day for 4 or 6 days,significantly more effective
same,effect on expression of the human transgene in the liver,"human HD transgene; liver, direct injection into the brain, 4 or 6 days",little effect
same,inhibition of human HD transgene expression,"human HD transgene; striatum, 1 μL of 25 μg/μL into the ventricle every other day for 4 or 6 days, compared to untreated R6/1 controls",dramatic inhibition
same,general brain atrophy typical of untreated R6/2 mice,"R6/2 mice [1]; R6/2 mice, 0.15 mg/kg continuous infusion by Alzet pump",did not display the general brain atrophy
same,recovery in brain hemisphere weight as compared to untreated non-transgenic mice,"R6/2 mice [1]; R6/2 mice, 20.0 mg/kg i.p. every 48 hours",greatest degree of recovery
same,brain hemisphere weight,"R6/2 mice [1]; R6/2 mice, all doses (2.0, 5.0, 20.0 mg/kg i.p. every 48 hours), dose dependent effect",greater than the weights of brain hemispheres from untreated R6/2 mice
same,brain weight,"R6/2 mice [1]; two non-surviving treated R6/2 mice, 0.15 mg/kg continuous infusion by Alzet pump",increased brain weight
same,level of motility (open field test),"R6/2 mice [2]; 2.0 mg/kg i.p. every 48 hours, compared to untreated R6/2 mice",no difference in motility
same,level of motility (open field test),"R6/2 mice [2]; 5.0 mg/kg i.p. every 48 hours, lower than nontransgenic controls",increased as compared to untreated R6/2 mice
same,level of motility (open field test),"R6/2 mice [2]; 20.0 mg/kg i.p. every 48 hours, lower than nontransgenic controls",increased as compared to untreated R6/2 mice
same,motility as compared to non-transgenic animals,"R6/2 mice [2]; surviving R6/2 mice, 0.15 mg/kg continuous infusion by Alzet pump",decline in motility
